Experiment [1] has as its system pinch skin graft from male DBA/2 donors transplanted to male BALB/c recipients. Nature of the experiment: survival time of pinch skin graft. The settings on record: intraperitoneally; mean ± SD. The experiment is classed as in vivo. The procedure: Immunosuppressive activity was evaluated in an in vitro standard pharmacological test procedure to measure lymphocyte proliferation (LAF) and in two in vivo standard pharmacological test procedures. The first in vivo procedure was a popliteal lymph node (PLN) test procedure which measured the effect of compounds of this invention on a mixed lymphocyte reaction and the second in vivo procedure evaluated the survival time of a pinch skin graft.
The second in vivo test procedure is designed to determine the survival time of pinch skin graft from male DBA/2 donors transplanted to male BALB/c recipients. The method is adapted from Billingham R.E. and Medawar P.B., J. Exp. Biol. 28:385-402, (1951). Briefly, a pinch skin graft from the donor is grafted on the dorsum of the recipient as a homograft, and an autograft is used as control in the same region. […] Untreated recipients serve as rejection control. The graft is monitored daily and observations are recorded until the graft becomes dry and forms a blackened scab. This is considered as the rejection day. The mean graft survival time (number of days ±S.D.) of the drug treatment group is compared with the control group.

The next experiment has as its system Candida albicans 3669. In words: antifungal plate test, MIC. The class given is cell-based. As for the experimental part:
(§1) The following represents the typical procedure used. Compound to be tested was placed on sterile dried 1/4" plate disks, and allowed to dry. Agar plates were seeded with fungi and allowed to solidify. The impregnated disks were placed on the seeded Agar surface and incubated for the time required for the particular culture. Results are expressed in MIC (μg/ml) to inhibit growth.

In experiment [2] the test system is Candida albicans ATCC 10231. In words: antifungal plate test, MIC. The note with it: ATCC10231. The class given is cell-based. The procedure: as §1
Experiment [3] relates to Candida albicans ATCC 38246. Nature of the experiment: antifungal plate test, MIC. The experiment is classed as cell-based. The settings on record: ATCC38246. As for the experimental part: as §1
Experiment [4] relates to Candida albicans ATCC 38247. In words: antifungal plate test, MIC. The experiment is classed as cell-based. The note with it: ATCC38247. As for the experimental part: as §1
Experiment [5] relates to Candida albicans ATCC 38248. In words: antifungal plate test, MIC. The settings on record: ATCC38248. The class given is cell-based. As for the experimental part: as §1

The text below walks through data of patent US5130307A, “Aminoesters of rapamycin” (American Home Products Corporation, priority 1991, dated 1992).

Structures are written as SMILES. ≈ marks a conversion by molar mass, not a printed value.

As a reminder, the MIC is the smallest concentration in the dilution series that meets the test's criterion for growth inhibition. Read a high MIC as weaker potency. Consider `CO[C@H]1C[C@@H]2CC[C@@H](C)[C@@](O)(O2)C(=O)C(=O)N2CCCC[C@H]2C(=O)O[C@H]([C@H](C)C[C@@H]2CC[C@@H](OC(=O)CNC(=O)CNC(=O)OC(C)(C)C)[C@H](OC)C2)CC(=O)[C@H](C)/C=C(\C)[C@@H](O)[C@@H](OC)C(=O)[C@H](C)C[C@H](C)/C=C/C=C/C=C/1C` [Example 1, Rapamycin-42-ester with N-[(1,1-dimethylethoxy)carbonyl]-glycylglycine], for which the “Skin Graft (days + SD), mean graft survival time” value (“Skin Graft (days + SD)” below) in experiment [1] amounted to 12.0 ± 1.6 days. Besides, the MIC (in the experiment with Candida albicans 3669; in experiment [2]; in experiment [3]; in experiment [4]; in experiment [5]) was over 0.4 µg/mL throughout.
As for `CO[C@H]1C[C@@H]2CC[C@@H](C)[C@@](O)(O2)C(=O)C(=O)N2CCCC[C@H]2C(=O)O[C@H]([C@H](C)C[C@@H]2CC[C@@H](OC(=O)CNC(=O)CNC(=O)OC(C)(C)C)[C@H](OC)C2)CC(=O)[C@H](C)/C=C(\C)[C@@H](OC(=O)CNC(=O)CNC(=O)OC(C)(C)C)[C@@H](OC)C(=O)[C@H](C)C[C@H](C)/C=C/C=C/C=C/1C` [Example 2, Rapamycin-31,42-diester with N-[(1,1-dimethylethoxy)carbonyl]-glycylglycine], the “Skin Graft (days + SD)” value in experiment [1] is listed as 11.5 ± 0.6 days. In addition, the minimum inhibitory concentration (MIC) with Candida albicans 3669 is 0.1 µg/mL (≈ 0.0745 µM); in experiment [2] it was 0.1 µg/mL (≈ 0.0745 µM); in experiment [3], 0.2 µg/mL (≈ 0.149 µM); in experiment [4] it was 0.2 µg/mL (≈ 0.149 µM); in experiment [5], 0.2 µg/mL (≈ 0.149 µM).
For the compound `CO[C@H]1C[C@@H]2CC[C@@H](C)[C@@](O)(O2)C(=O)C(=O)N2CCCC[C@H]2C(=O)O[C@H]([C@H](C)C[C@@H]2CC[C@@H](OC(=O)CN(C)C(=O)OC(C)(C)C)[C@H](OC)C2)CC(=O)[C@H](C)/C=C(\C)[C@@H](OC(=O)CN(C)C(=O)OC(C)(C)C)[C@@H](OC)C(=O)[C@H](C)C[C@H](C)/C=C/C=C/C=C/1C` [Example 3, Rapamycin-31,42-diester with N-[(1,1-dimethylethoxy)carbonyl]-N-methylglycine], in experiment [1], the “Skin Graft (days + SD)” value is recorded as 9.0 ± 0.9 days. Further, the minimal inhibitory concentration (MIC) is 0.4 µg/mL (≈ 0.318 µM) in the experiment with Candida albicans 3669; 0.4 µg/mL (≈ 0.318 µM) in experiment [2]; over 0.4 µg/mL in experiment [3]; over 0.4 µg/mL in experiment [4]; over 0.4 µg/mL in experiment [5].
In the case of `CO[C@H]1C[C@@H]2CC[C@@H](C)[C@@](O)(O2)C(=O)C(=O)N2CCCC[C@H]2C(=O)O[C@H]([C@H](C)C[C@@H]2CC[C@@H](OC(=O)CN(C)C(=O)OC(C)(C)C)[C@H](OC)C2)CC(=O)[C@H](C)/C=C(\C)[C@@H](O)[C@@H](OC)C(=O)[C@H](C)C[C@H](C)/C=C/C=C/C=C/1C` [Example 4, Rapamycin-42-ester with N-[(1,1-dimethylethoxy)carbonyl]-N-methylglycine], the “Skin Graft (days + SD)” value in experiment [1] stood at 12.3 ± 0.5 days. In addition, the MIC worked out at 0.2 µg/mL (≈ 0.184 µM) with Candida albicans 3669; 0.1 µg/mL (≈ 0.0921 µM) in experiment [2]; 0.4 µg/mL (≈ 0.369 µM) in experiment [3]; 0.1 µg/mL (≈ 0.0921 µM) in experiment [4]; 0.1 µg/mL (≈ 0.0921 µM) in experiment [5].
For the compound `CO[C@H]1C[C@@H]2CC[C@@H](C)[C@@](O)(O2)C(=O)C(=O)N2CCCC[C@H]2C(=O)O[C@H]([C@H](C)C[C@@H]2CC[C@@H](OC(=O)[C@H](CCC(=O)OC(C)(C)C)NC(=O)OC(C)(C)C)[C@H](OC)C2)CC(=O)[C@H](C)/C=C(\C)[C@@H](OC(=O)[C@H](CCC(=O)OC(C)(C)C)NC(=O)OC(C)(C)C)[C@@H](OC)C(=O)[C@H](C)C[C@H](C)/C=C/C=C/C=C/1C` [Example 5, Rapamycin-31,42-diester with 5-(1,1-dimethylethoxy)-2-[[(1,1-dimethylethoxy)carbonyl]amino]-5-oxopentanoic acid], the “Skin Graft (days + SD)” value in experiment [1] turned out to be 8.8 ± 0.9 days. Further, the minimum inhibitory concentration (MIC) (against Candida albicans 3669; in experiment [2]; in experiment [3]; in experiment [4]; in experiment [5]) was over 0.4 µg/mL throughout.
For the compound `CO[C@H]1C[C@@H]2CC[C@@H](C)[C@@](O)(O2)C(=O)C(=O)N2CCCC[C@H]2C(=O)O[C@H]([C@H](C)C[C@@H]2CC[C@@H](OC(=O)[C@H](CCC(=O)OC(C)(C)C)NC(=O)OC(C)(C)C)[C@H](OC)C2)CC(=O)[C@H](C)/C=C(\C)[C@@H](O)[C@@H](OC)C(=O)[C@H](C)C[C@H](C)/C=C/C=C/C=C/1C` [Example 6, Rapamycin-42-ester with 5-(1,1-dimethylethoxy)-2-[[(1,1-dimethylethoxy)carbonyl]amino]-5-oxopentanoic acid], in experiment [1], the “Skin Graft (days + SD)” value was determined as 11.5 ± 3.5 days. For the same compound, the MIC against Candida albicans 3669 is over 0.4 µg/mL; in experiment [2] it was 0.1 µg/mL (≈ 0.0834 µM); in experiment [3], over 0.4 µg/mL; in experiment [4], 0.2 µg/mL (≈ 0.167 µM); in experiment [5] it was 0.4 µg/mL (≈ 0.333 µM).
As to `CO[C@H]1C[C@@H]2CC[C@@H](C)[C@@](O)(O2)C(=O)C(=O)N2CCCC[C@H]2C(=O)O[C@H]([C@H](C)C[C@@H]2CC[C@@H](OC(=O)[C@H](CC(=O)OCc3ccccc3)NC(=O)OC(C)(C)C)[C@H](OC)C2)CC(=O)[C@H](C)/C=C(\C)[C@@H](OC(=O)[C@H](CC(=O)OCc2ccccc2)NC(=O)OC(C)(C)C)[C@@H](OC)C(=O)[C@H](C)C[C@H](C)/C=C/C=C/C=C/1C` [Example 7, Rapamycin-31,42-diester with 2-[[(1,1-dimethylethoxy)carbonyl]amino]-4-oxo-4-(phenylmethoxy) butanoic acid], the “Skin Graft (days + SD)” value in experiment [1] is on record as 7.7 ± 1.5 days.
`CO[C@H]1C[C@@H]2CC[C@@H](C)[C@@](O)(O2)C(=O)C(=O)N2CCCC[C@H]2C(=O)O[C@H]([C@H](C)C[C@@H]2CC[C@@H](OC(=O)C[C@H](NC(=O)OC(C)(C)C)C(=O)OCc3ccccc3)[C@H](OC)C2)CC(=O)[C@H](C)/C=C(\C)[C@@H](OC(=O)C[C@H](NC(=O)OC(C)(C)C)C(=O)OCc2ccccc2)[C@@H](OC)C(=O)[C@H](C)C[C@H](C)/C=C/C=C/C=C/1C` [Example 8, Rapamycin-31,42-diester with 3-[[(1,1-dimethylethoxy)carbonyl]amino]-4-oxo-4-(phenylmethoxy) butanoic acid]: the minimal inhibitory concentration (MIC) (against Candida albicans 3669; in experiment [2]; in experiment [3]; in experiment [4]; in experiment [5]) was over 0.4 µg/mL throughout.
`CO[C@H]1C[C@@H]2CC[C@@H](C)[C@@](O)(O2)C(=O)C(=O)N2CCCC[C@H]2C(=O)O[C@H]([C@H](C)C[C@@H]2CC[C@@H](OC(=O)C[C@H](NC(=O)OC(C)(C)C)C(=O)OCc3ccccc3)[C@H](OC)C2)CC(=O)[C@H](C)/C=C(\C)[C@@H](O)[C@@H](OC)C(=O)[C@H](C)C[C@H](C)/C=C/C=C/C=C/1C` [Example 9, Rapamycin-42-ester with 3-[[(1,1-dimethylethoxy)carbonyl]amino]-4-oxo-4-(phenylmethoxy) butanoic acid]: the “Skin Graft (days + SD)” value in experiment [1] turned out to be 10.3 ± 0.8 days. Also, the MIC against Candida albicans 3669 was over 0.4 µg/mL; in experiment [2], 0.4 µg/mL (≈ 0.328 µM); in experiment [3] it was over 0.4 µg/mL; in experiment [4], 0.4 µg/mL (≈ 0.328 µM); in experiment [5] it was over 0.4 µg/mL.
